Laboratory results from patent US10526290B2, “Bendamustine derivatives and related compounds, and medical use thereof in cancer therapy” (SYNBIAS PHARMA AG, priority 2012, dated 2020).

For `Cl.Cn1c(CCCC(=O)O)nc2ccc(N(CCCl)CCCl)cc21`, the melting point was 174 to 176.5 °C.
